Here are results for 12 compounds from US9096591B2, “Tetracyclic compounds” (Medivation Technologies, Inc., priority 2007, dated 2015).

The target of assay [1] is T1, human recombinant histamine H2 receptor (Homo sapiens, UniProt P25021).
T1 construct: expressed in transfected cells; host or cells: CHO-K1 cells
The assay can be described thus: Histamine H2 radioligand binding ([125I]Aminopotentidine). In outline: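 This radioligand binding assay measured displacement of [125I]Aminopotentidine from recombinant human histamine H2 receptors. Compounds were dissolved in 1% DMSO vehicle. Specific binding was calculated by subtracting non-specific binding, defined using 3 μM Tiotidine, and activity was reported as percentage inhibition of that specific binding.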

Assay [2] has as its target T2, human recombinant adrenergic α2A receptor (Homo sapiens, UniProt P08913).
T2 construct: expressed in transfected cells; host or cells: insect Sf9 cells
T2 sequence (P08913 1-465): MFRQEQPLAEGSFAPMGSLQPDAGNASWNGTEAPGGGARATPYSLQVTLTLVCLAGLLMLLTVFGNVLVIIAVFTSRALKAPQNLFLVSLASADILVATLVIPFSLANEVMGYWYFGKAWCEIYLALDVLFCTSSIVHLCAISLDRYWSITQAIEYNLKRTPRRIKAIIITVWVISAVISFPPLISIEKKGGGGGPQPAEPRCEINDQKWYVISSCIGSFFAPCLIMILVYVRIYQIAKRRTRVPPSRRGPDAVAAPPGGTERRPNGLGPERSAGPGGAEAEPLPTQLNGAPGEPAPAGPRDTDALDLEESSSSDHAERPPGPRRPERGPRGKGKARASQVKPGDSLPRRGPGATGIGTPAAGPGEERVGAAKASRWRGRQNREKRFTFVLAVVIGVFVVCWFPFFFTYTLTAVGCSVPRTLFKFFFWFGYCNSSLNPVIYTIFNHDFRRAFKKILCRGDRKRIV
Nature of the assay: Adrenergic α2A radioligand binding ([3H]MK-912). Also on record: Inhibition of ligand binding, Adren. alpha2A: concentration or dose not given beside the values. To be noted: for Inhibition of ligand binding, Adren. alpha2A: percent inhibition of specific binding; for inhibition at 1 µM: compounds screened at 1 μM, read-out: Inhibition of ligand binding, Adren. alpha2A (percent inhibition of specific binding). A digest of the protocol: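 Membranes from Sf9 cells expressing the receptor were incubated with 1 nM [3H]MK-912 for 60 minutes at 25° C in 50 mM Tris-HCl pH 7.4, 12.5 mM MgCl2, 2 mM EDTA. 10 μM WB-4101 defined non-specific binding. Values are percent inhibition of specific bound radioactivity after filtration.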

Assay [3] deals with T3, human recombinant serotonin (5-Hydroxytryptamine) 5-HT2A receptor (Homo sapiens, UniProt P28223).
T3 construct: expressed in transfected cells; host or cells: CHO-K1 cells
The assay can be described thus: Serotonin 5-HT2A radioligand binding ([3H]Ketanserin). The settings on record: for Inhibition of ligand binding, Ser. 5-HT2A: percent inhibition of specific binding; for inhibition at 1 µM: read-out: Inhibition of ligand binding, Ser. 5-HT2A (percent inhibition of specific binding). As for the experimental part:
Compounds of the invention were incubated with 0.5 nM [^3H]Ketanserin for 60 minutes at 25° C. Non-specific binding was estimated in the presence of 1 μM Mianserin. Receptor proteins were filtered and washed, the filters were then counted to determine [^3H]Ketanserin specifically bound. […] Biochemical assay results are presented as the percent inhibition of specific binding in Table 6.

In assay [4] the target is T4, human recombinant serotonin (5-Hydroxytryptamine) 5-HT2C receptor (Homo sapiens, UniProt P28335).
T4 construct: expressed in transfected cells; host or cells: CHO-K1 cells
T4 sequence (P28335 33-458): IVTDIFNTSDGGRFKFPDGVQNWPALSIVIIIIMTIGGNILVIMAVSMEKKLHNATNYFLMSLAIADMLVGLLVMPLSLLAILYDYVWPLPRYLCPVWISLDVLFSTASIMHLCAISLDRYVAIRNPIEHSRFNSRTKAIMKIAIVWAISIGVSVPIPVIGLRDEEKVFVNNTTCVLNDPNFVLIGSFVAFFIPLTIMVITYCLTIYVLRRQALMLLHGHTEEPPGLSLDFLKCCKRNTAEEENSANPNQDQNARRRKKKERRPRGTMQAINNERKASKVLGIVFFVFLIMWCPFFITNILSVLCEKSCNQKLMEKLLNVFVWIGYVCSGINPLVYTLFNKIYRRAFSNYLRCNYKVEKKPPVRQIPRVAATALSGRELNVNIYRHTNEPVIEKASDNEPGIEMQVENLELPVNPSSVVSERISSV
Nature of the assay: Serotonin 5-HT2C radioligand binding ([3H]Mesulergine). Also on record: Inhibition of ligand binding, Ser. 5-HT2C: concentration or dose not given beside the values. To be noted: for Inhibition of ligand binding, Ser. 5-HT2C: percent inhibition of specific binding; for inhibition at 1 µM: compounds screened at 1 μM, read-out: Inhibition of ligand binding, Ser. 5-HT2C (percent inhibition of specific binding). As for the experimental part: Compounds of the invention were incubated with 1 nM [^3H]Mesulergine for 60 minutes at 25° C. Non-specific binding was estimated in the presence of 1 μM Mianserin. Receptor proteins were filtered and washed, the filters were then counted to determine [^3H]Mesulergine specifically bound. […] Biochemical assay results are presented as the percent inhibition of specific binding in Table 6.

Assay [5] deals with T5, human recombinant serotonin (5-Hydroxytryptamine) 5-HT6 receptor (Homo sapiens, UniProt P50406).
T5 construct: expressed in transfected cells; host or cells: human HeLa cells
Nature of the assay: Serotonin 5-HT6 radioligand binding ([3H]LSD). Set-up: Inhibition of ligand binding, Ser. 5-HT6: concentration or dose not given beside the values. To be noted: for Inhibition of ligand binding, Ser. 5-HT6: percent inhibition of specific binding; for inhibition at 1 µM: compounds screened at 1 μM, read-out: Inhibition of ligand binding, Ser. 5-HT6 (percent inhibition of specific binding). The text has this: Receptor proteins were filtered and washed, the filters were then counted to determine [3H]LSD specifically bound. […] Biochemical assay results are presented as the percent inhibition of specific binding in Table 6.

Assay [6] concerns the target T6, Serotonin (5-Hydroxytryptamine) 5-HT7 (Homo sapiens, UniProt P34969).
T6 construct: expressed in transfected cells; host or cells: CHO cells
The assay can be described thus: Serotonin 5-HT7 radioligand binding ([3H]LSD). The settings on record: percent inhibition of specific binding. Set-up: Inhibition of ligand binding, Ser. 5-HT7: concentration or dose not given beside the values. As for the experimental part:
Lysergic acid diethylamide (LSD) for 2 hours at 25° C. […] Receptor proteins were filtered and washed, the filters were then counted to determine [^3H]LSD specifically bound. […] Biochemical assay results are presented as the percent inhibition of specific binding in Table 6.

Assay [7] addresses T7, human recombinant dopamine D2L receptor (Homo sapiens, UniProt P14416).
T7 construct: expressed in transfected cells; host or cells: CHO cells
The assay can be described thus: Dopamine D2L radioligand binding ([3H]Spiperone). The settings on record: compounds screened at 1 μM; read-out: Inhibition of ligand binding, Dop. D2L (percent inhibition of specific binding). As for the experimental part:
Non-specific binding was estimated in the presence of 10 μM Haloperidol. Receptor proteins were filtered and washed, the filters were then counted to determine [^3H]Spiperone specifically bound. […] Biochemical assay results are presented as the percent inhibition of specific binding in Table 6.

[8] abbreviates: 1 μM compound, 0.1 nM [125I]Aminopotentidine, read-out: Histamine Binding H2, percent inhibition of specific binding.
[9] abbreviates: percent inhibition of specific binding, screened at 1 μM, read-out: Inhibition of ligand binding, Hist. H2.
Where [10] appears, read: compounds screened at 1 μM, read-out: Inhibition of ligand binding, Hist. H2 (percent inhibition of specific binding).

Like-named read-outs stand apart in the source and are kept apart here.

By inhibition is commonly meant the drop in the measured response relative to a control, in per cent.

T3 sequence (P28223 whole entry): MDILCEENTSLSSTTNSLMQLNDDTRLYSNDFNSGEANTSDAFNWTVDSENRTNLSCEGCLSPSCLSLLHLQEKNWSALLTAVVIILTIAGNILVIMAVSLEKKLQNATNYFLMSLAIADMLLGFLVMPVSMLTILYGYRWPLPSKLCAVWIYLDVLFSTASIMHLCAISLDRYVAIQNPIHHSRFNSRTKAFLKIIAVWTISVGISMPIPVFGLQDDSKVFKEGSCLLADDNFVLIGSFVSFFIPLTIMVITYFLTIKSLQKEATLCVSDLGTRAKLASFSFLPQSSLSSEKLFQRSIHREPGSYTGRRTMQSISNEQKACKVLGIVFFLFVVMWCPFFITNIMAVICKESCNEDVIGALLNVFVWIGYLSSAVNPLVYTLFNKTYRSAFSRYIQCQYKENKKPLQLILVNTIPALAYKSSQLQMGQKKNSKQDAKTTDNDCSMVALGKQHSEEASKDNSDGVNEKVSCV
T1 sequence (P25021 whole entry): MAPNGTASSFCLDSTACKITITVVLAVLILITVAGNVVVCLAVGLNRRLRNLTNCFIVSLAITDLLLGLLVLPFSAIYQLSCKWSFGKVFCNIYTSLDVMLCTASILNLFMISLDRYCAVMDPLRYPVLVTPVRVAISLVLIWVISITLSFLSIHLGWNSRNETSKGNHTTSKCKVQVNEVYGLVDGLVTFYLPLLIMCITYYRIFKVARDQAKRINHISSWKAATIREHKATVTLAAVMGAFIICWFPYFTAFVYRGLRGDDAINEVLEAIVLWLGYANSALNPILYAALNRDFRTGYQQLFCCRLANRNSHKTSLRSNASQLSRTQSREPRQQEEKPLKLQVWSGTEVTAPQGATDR
T5 sequence (P50406 whole entry): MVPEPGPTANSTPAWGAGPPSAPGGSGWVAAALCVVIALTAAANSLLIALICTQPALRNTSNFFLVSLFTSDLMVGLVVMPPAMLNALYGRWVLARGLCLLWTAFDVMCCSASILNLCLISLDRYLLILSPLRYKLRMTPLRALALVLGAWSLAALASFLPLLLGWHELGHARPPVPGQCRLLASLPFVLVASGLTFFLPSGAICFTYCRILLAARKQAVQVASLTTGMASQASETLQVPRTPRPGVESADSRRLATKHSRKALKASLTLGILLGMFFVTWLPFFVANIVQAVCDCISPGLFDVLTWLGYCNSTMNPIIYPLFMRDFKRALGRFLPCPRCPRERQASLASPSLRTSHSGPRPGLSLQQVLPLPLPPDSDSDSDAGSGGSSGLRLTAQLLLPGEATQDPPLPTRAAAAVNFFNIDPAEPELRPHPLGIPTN
T7 sequence (P14416 whole entry): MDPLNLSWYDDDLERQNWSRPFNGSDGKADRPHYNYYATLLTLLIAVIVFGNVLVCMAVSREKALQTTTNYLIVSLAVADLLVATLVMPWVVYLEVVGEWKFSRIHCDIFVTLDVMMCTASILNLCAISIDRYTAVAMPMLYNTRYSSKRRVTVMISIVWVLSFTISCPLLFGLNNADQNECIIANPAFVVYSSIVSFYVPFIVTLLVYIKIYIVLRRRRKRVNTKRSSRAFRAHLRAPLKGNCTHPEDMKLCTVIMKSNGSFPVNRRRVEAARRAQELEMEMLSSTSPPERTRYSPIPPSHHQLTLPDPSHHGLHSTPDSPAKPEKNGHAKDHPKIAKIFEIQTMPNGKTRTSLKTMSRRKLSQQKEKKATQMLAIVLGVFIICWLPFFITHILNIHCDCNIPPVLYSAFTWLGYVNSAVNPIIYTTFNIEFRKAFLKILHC
T6 sequence (P34969 whole entry): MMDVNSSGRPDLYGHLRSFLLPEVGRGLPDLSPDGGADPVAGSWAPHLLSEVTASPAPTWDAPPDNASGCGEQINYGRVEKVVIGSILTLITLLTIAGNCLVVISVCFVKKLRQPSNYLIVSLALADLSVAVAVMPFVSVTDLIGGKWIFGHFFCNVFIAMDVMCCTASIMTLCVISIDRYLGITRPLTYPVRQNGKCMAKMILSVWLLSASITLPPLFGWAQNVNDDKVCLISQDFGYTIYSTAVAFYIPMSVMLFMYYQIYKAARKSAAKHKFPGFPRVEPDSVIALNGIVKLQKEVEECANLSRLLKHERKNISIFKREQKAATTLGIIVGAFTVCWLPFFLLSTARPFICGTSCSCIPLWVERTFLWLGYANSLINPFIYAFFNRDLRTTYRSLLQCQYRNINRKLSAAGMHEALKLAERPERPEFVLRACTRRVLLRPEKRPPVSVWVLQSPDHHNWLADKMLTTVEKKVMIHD

As for `CCN1CCc2c(c3ccccc3n2CCc2ccc(C)cc2)C1` [Compound 3, 2-ethyl-2,3,4,5-tetrahydro-5-(4-methylphenethyl)-1H-pyrido[4,3-b]indole], the inhibition at 1 µM in assay [1] (setting [8]) and in assay [1] (setting [9]) was 51% in each case. Further, the “Inhibition of ligand binding, Adren. alpha2A” value (“Inhibition … Adren. alpha2A” below) in assay [2] stood at 86%. Further, the “Inhibition of ligand binding, Ser. 5-HT2A” value (shortened to “Inhibition … Ser. 5-HT2A”) in assay [3] was 98%. The “Inhibition of ligand binding, Ser. 5-HT2C” value (from here on “Inhibition … Ser. 5-HT2C”) in assay [4] is 82%. The “Inhibition of ligand binding, Ser. 5-HT6” value in assay [5] was 40%. Also, the “Inhibition of ligand binding, Ser. 5-HT7” value in assay [6] turned out to be 81%.

Consider `CCN1CCc2c(c3ccccc3n2CCc2ccccc2)C1` [Compound 4, 2-ethyl-2,3,4,5-tetrahydro-5-phenethyl-1H-pyrido[4,3-b]indole], for which, in assay [1] (0.3 μM compound, 0.1 nM [125I]Aminopotentidine, read-out: Histamine Binding H2, percent inhibition of specific binding), the inhibition at 0.3 µM is 34%. In addition, the inhibition at 1 µM in assay [1] (setting [8]) and in assay [1] (setting [9]) was 51% throughout. Besides, the “Inhibition … Adren. alpha2A” value in assay [2] turned out to be 82%. In addition, the “Inhibition … Ser. 5-HT2A” value in assay [3] worked out at 102%. Further, the “Inhibition … Ser. 5-HT2C” value in assay [4] is 94%. In assay [5], the “Inhibition of ligand binding, Ser. 5-HT6” value came to 82%. Also, in assay [6], the “Inhibition of ligand binding, Ser. 5-HT7” value was 88%.

`CCN1CCc2c(c3ccccc3n2CCc2ccncc2)C1` [Compound 5]: the inhibition at 1 µM in assay [1] (setting [8]) and in assay [1] (setting [9]) was 2% throughout. In assay [2], the “Inhibition … Adren. alpha2A” value was found to be 20%. Also, the “Inhibition … Ser. 5-HT2A” value in assay [3] stood at 55%. For the same compound, the “Inhibition … Ser. 5-HT2C” value in assay [4] is given as 9%. Moreover, the “Inhibition of ligand binding, Ser. 5-HT6” value in assay [5] was found to be 1%. In assay [6], the “Inhibition of ligand binding, Ser. 5-HT7” value is given as 37%.

As for `CCN1CCc2c(c3ccccc3n2CCc2ccccn2)C1` [Compound 6], the inhibition at 1 µM in assay [1] (setting [8]) and in assay [1] (setting [9]) was -3% in each case. The “Inhibition … Adren. alpha2A” value in assay [2] is listed as 20%. Further, in assay [3], the “Inhibition … Ser. 5-HT2A” value is recorded as 74%. Moreover, in assay [4], the “Inhibition … Ser. 5-HT2C” value is given as 34%. The “Inhibition of ligand binding, Ser. 5-HT6” value in assay [5] was found to be 7%. Also, the “Inhibition of ligand binding, Ser. 5-HT7” value in assay [6] is recorded as 39%.

Consider `CN1CCc2c(c3ccncc3n2CCc2ccccn2)C1` [Compound 481, 7-aza-2-methyl-5-(2-(pyridin-2-yl)ethyl)-2,3,4,5-tetrahydro-1H-pyrido[4,3-b]indole], for which the inhibition at 1 µM in assay [1] (setting [10]) is -17%; in assay [2] it was 3%; in assay [7] it was 16%; in assay [3] it was 27%; in assay [4], 20%; in assay [5], 14%.

`CN1CCc2c(c3ncccc3n2CCc2ccncc2)C1` [Compound 482, 9-aza-2-methyl-5-(2-(pyridin-4-yl)ethyl)-2,3,4,5-tetrahydro-1H-pyrido[4,3-b]indole]: the inhibition at 1 µM in assay [1] (setting [10]) was -9%; in assay [2], -17%; in assay [7], 7%; in assay [3], -7%; in assay [4] it was 17%; in assay [5], 4%.

Regarding `CN1CCc2c(c3ccncc3n2CCc2ccncc2)C1` [Compound 483, 7-aza-2-methyl-5-(2-(pyridin-4-yl)ethyl)-2,3,4,5-tetrahydro-1H-pyrido[4,3-b]indole], the inhibition at 1 µM is -7% in assay [1] (setting [10]); -7% in assay [2]; 0% in assay [7]; 2% in assay [3]; 9% in assay [4]; 13% in assay [5].

For `CN1CCc2c(c3ncccc3n2CCc2ccccn2)C1` [Compound 484, 9-aza-2-methyl-5-(2-(pyridin-2-yl)ethyl)-2,3,4,5-tetrahydro-1H-pyrido[4,3-b]indole], the inhibition at 1 µM in assay [1] (setting [10]) was -4%; in assay [2], 28%; in assay [7], 15%; in assay [3] it was 39%; in assay [4], 31%; in assay [5] it was 14%.

As to `Cc1ccc(CCn2c3c(c4cc(I)ccc42)CN(C)CC3)cn1` [Compound 485, 2,3,4,5-tetrahydro-8-iodo-2-methyl-5-(2-(6-methylpyridin-3-yl)ethyl)-1H-pyrido[4,3-b]indole], the inhibition at 1 µM is 71% in assay [1] (setting [10]); 86% in assay [2]; 43% in assay [7]; 69% in assay [3]; 91% in assay [4]; 94% in assay [5].

For the compound `CN1CCc2c(c3cc(I)ccc3n2CC(=O)N2CCCCC2)C1` [Compound 486, 2-(1,2,3,4-tetrahydro-8-iodo-2-methylpyrido[4,3-b]indol-5-yl)-1-(piperidin-1-yl)ethanone], the inhibition at 1 µM in assay [1] (setting [10]) turned out to be 11%; in assay [2] it was 4%; in assay [7] it was 0%; in assay [3], 19%; in assay [4] it was 31%; in assay [5], 14%.

`Cc1ccc(CCn2c3c(c4cc(Br)ccc42)CN(C)CC3)cn1` [Compound 487, 8-bromo-2-methyl-5-(2-(6-methylpyridin-3-yl)ethyl)-2,3,4,5-tetrahydro-1H-pyrido[4,3-b]indole]: the inhibition at 1 µM in assay [1] (setting [10]) came out at 80%; in assay [2] it was 88%; in assay [7], 42%; in assay [3], 87%; in assay [4], 84%; in assay [5], 94%.

For `CN1CCc2c(c3cc(Br)ccc3n2CC(=O)N2CCCCC2)C1` [Compound 516, 2-(8-bromo-2-methyl-3,4-dihydro-1H-pyrido[4,3-b]indol-5(2H)-yl)-1-(piperidin-1-yl)ethanone], the inhibition at 1 µM was 12% in assay [1] (setting [10]); 3% in assay [2]; -4% in assay [7]; 6% in assay [3]; 58% in assay [4]; 9% in assay [5].
